Results from patent publication US20070249545A1, “DIHYDROFOLATE REDUCTASE INHIBITION BY EPIGALLOCATECHIN GALLATE COMPOUNDS” (priority 2004, published 2007).

How the values were obtained:
chicken liver DHFR = target: T1, chicken liver DHFR (Gallus gallus, UniProt P00378); experiment: Kinetic analysis of inhibition of chicken liver DHFR; type: biochemical
T1 construct: from tissue; host or cells: chicken liver
Description: The activity of DHFR was determined at 25° C. by following the decrease of NADPH and DHF by absorbance measurements at 340 nm (ε=11,800 M^−1 cm^−1) by using a Perkin-Elmer Lambda-2 spectrophotometer with cuvettes of 1.0 cm light-path.
Experiments were performed at pH 7.58 and 25° C. in a buffer containing 2-(N-morpholino)ethanesulfonic acid (MES, 25 mM), sodium acetate (25 mM), tris(hydroxymethyl)aminomethane (Tris 50 mM), and NaCl (100 mM). To prevent the oxidation of catechins, the reaction mixture contained 1 mM ascorbic acid. The pH of the reaction was measured before and after of the experiment. The assays were started by the addition of enzyme. In the absence of the enzyme, the rate of change of absorbance was negligible.
Lineweaver-Burk plots were made of the reaction of chicken liver DHFR (3.3 nM) with DHF and NADPH. For initial velocity inhibition experiments one substrate (NADPH) was held constant at saturating concentration (100 μM) while the concentration of the other substrate (DHF) and the inhibitor (EGCG) were varied (FIG. 3). […] This initial concentration of saturating NADPH was considered as constant after the consumption of 10 μM DHF by the addition of enzyme. Data were fitted by nonlinear regression to the integrated form (31) of the Michaelis equation. The fitting was performed by using Marquart's algorithm (32) implemented in the Sigma Plot 2.01 for Windows (33). […]

[1] = target: T2, recombinant human DHFR (rHDHFR) (Homo sapiens, UniProt P00374); experiment: Inhibition of human DHFR by tea catechins; type: biochemical
T2 sequence (P00374 1-187): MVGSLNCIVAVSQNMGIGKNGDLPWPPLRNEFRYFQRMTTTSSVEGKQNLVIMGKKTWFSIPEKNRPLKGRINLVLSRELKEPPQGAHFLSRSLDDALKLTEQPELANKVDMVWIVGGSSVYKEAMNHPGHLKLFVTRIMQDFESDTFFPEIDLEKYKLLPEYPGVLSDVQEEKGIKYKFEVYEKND

free rHDHFR = target: T3, free rHDHFR (Homo sapiens, UniProt P00374); experiment: Binding of EGCG to free DHFR by quenching of enzyme fluorescence; settings: read-out: dissociation constant
T3 sequence (P00374 1-187): T2 sequence (P00374 1-187)
Description: The binding of EGCG to free DHFR was determined by following the decrease in enzyme fluorescence that occurs on formation of the enzyme-inhibitor complex. […] The binding of EGCG quenches this fluorescence. The data for the resulting titration curves were used for dissociation constant determinations.

L1210 cells = experiment: EGCG cytotoxicity / growth of L1210 cells; type: cell-based, mouse
Description: L1210 cells were plated at a density of 10,000 cells/ml in 96-well plates with a “standard folate” RPMI 1640 medium supplemented with 10% FCS. Reversion experiments were carried out in an HT medium and/or by adding 50 μM ascorbic acid (AA). Cell injury was evaluated by a calorimetric assay for mitochondrial function using the MTT test.^29
The effect of different EGCG concentrations on L1210 cell growth after 29 h of treatment at two different folic acid concentrations was determined. The cells were previously adapted over a period of 2-3 days to grow in folate-free RPMI 1640 medium supplemented with 10% dialyzed FCS and 2 mM glutamine. This medium is subsequently referred to as LF (low folate). For the cytotoxicity assay, the cells were grown in LF media supplemented with folic acid (3 μM or 300 nM). Treatments were carried out in triplicate, and each experiment performed at least twice. Cell growth was determined by two different methods, Coulter counter Z2 and hemocytometer (FIG. 7). IC50 values were determined at each folic acid concentration added to the medium.
The growth-inhibitory effects of 10 μM EGCG at various folic acid concentrations were determined at two different time intervals. L1210 cells were cultured in a LF medium supplemented with the corresponding folic acid concentration. The data were obtained by using a Coulter counter and hemocytometer and expressed assuming a zero percentage of growth inhibition for untreated control (FIG. 8). Cells were maintained in the corresponding medium with 100 μg/ml of penicillin and streptomycin at 37° C. in a humid 7.5% CO2, […] environment for all the experiments.

S. maltophilia strain 1 = experiment: Time kill assay for bactericidal and bacteriostatic effects; type: cell-based, Stenotrophomonas maltophilia
Description: A time kill assay was performed for strain 1. Glass tubes containing cation-adjusted Mueller-Hinton broth, with doubling antibiotic concentration were inoculated with 5×10^5 CFU/ml and were incubated at 37° C. for 24 h. Antibiotic concentrations were chosen to comprise three doubling dilutions above and two doubling dilutions below the broth dilution MIC. Inoculation of each serially diluted antibiotic tube was performed following NCCLS guidelines for broth dilution method. Viability counts of antibiotic-containing suspensions were carried out at 0, 3, 6, 12 and 24 h, by plating 10 μl aliquots of 10-fold dilutions from each tube in sterile saline onto Columbia agar supplemented with 5% of defibrinated sheep blood. The plates used to recover organisms were incubated for up to 24 h. The lower limit of sensibility of colony counts was 100 CFU/ml. Time kill assay results were analyzed by determining changes in the log10 CFU/ml compared to the counts at zero-time for the six different concentrations of EGCG. Bactericidal effect was defined at the lowest concentration that reduced the original inoculums by ≧3 log10 CFU/ml after a period of time and bacteriostatic if the inoculums was reduced by 0 to 3 log10 CFU/ml.

p16 = p16 methylation status in Jurkat T cells; type: cell-based, human; settings: EGCG 20 μM, 7-days treatment
NF-κB = experiment: TNF-α-mediated activation of NF-κB (Western blot); type: cell-based; settings: 24 hours, then TNF-α, IκBα, phospho-IκBα, Akt
Description: To check if the antifolate activity of EGCG is related to the suppression of activation of NF-κB, cells were grown in the presence of EGCG or MTX. After 24 hours, the cells were induced with TNF-α and the content of proteins related to NF-κB activation (IκBα, phospho-IκBα, Akt and phosphor-Akt) was checked by Western blot (FIG. 16A).

urokinase = urokinase (Homo sapiens, UniProt P00749); settings: in vitro; cited from earlier work

T1 sequence (P00378 whole entry): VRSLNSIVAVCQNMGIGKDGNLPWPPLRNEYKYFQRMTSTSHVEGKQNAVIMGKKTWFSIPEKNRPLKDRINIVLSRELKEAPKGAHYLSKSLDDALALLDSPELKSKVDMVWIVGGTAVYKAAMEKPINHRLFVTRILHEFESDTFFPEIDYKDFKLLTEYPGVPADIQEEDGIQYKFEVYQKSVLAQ

In the case of (−)-epigallocatechin gallate [EGCG], the Ki (chicken liver DHFR; chicken liver DHFR, from secondary plot, read-out: KI as a competitive inhibitor of DHF) is reported as 10.3 µM, the “inhibition after preincubation and 500-fold dilution” value (chicken liver DHFR; enzyme 1.65 μM preincubated with 20 to 50 μM inhibitor for 30 min, 500-fold dilution into DHF/NADPH assay) is reported as “did not produce any measurable inhibition” and the Ki [1] is reported as 2000 nM. The “inhibition of rHDHFR activity” value [1] was “potent inhibitors”, the Kd (free rHDHFR) was 800 nM and the “growth inhibition in HT medium containing ascorbic acid, NAC or SOD” value (L1210 cells; L1210, EGCG 20 μM) was “completely removed the inhibitory effect”. For the same substance, the “growth inhibition with ascorbic acid in the medium” value (L1210 cells; L1210, EGCG 20 μM, antioxidant ascorbic acid) was “partially lifted”, the “growth inhibition in HT medium, low folate” value (L1210 cells; L1210, LF medium (30 nM folic acid), EGCG 1 μM) was “completely reversed” and the “growth inhibition in HT medium” value (L1210 cells; L1210, hypoxanthine-thymidine (HT) medium, EGCG 20 μM) was “high level of inhibition reversal”. For the same substance, the IC50 (L1210 cells; RPMI 1640 medium with 10% FCS (standard folate)) was 20 µM, the regrowth (S. maltophilia strain 1; 64 μg/ml, after 12 h incubation) was “Regrowth was observed” and the “concentration with bactericidal effect” value (S. maltophilia strain 1; at 12 h) was 4 times the MIC. For the same substance, the “concentration with bacteriostatic effect” value (S. maltophilia strain 1; at 12 h) was 2 times the MIC, the p16 methylation pattern (p16) was “changed from methylated to unmethylated” and the “effects on proteins related to NF-κB activation, with folinic acid” value (NF-κB) was “highly reversed by folinic acid”. For the same substance, the “concentration needed to inhibit urokinase activity” value (urokinase) was 2 to 10 mM.
